Earlier results in US20160287532A1 (SignPath Pharma Inc., priority 2015, published 2016).
Like-named read-outs stand apart in the source and are kept apart here.

Legend:
[1] = test system: MMP-3; settings: IVD cells pre-treated with IL-1β
[2] = test system: IL-8; settings: IVD cells pre-treated with IL-1β
[3] = test system: MMP-1; settings: IVD cells pre-treated with IL-1β
[4] = test system: MMP-13; settings: IVD cells pre-treated with IL-1β
[5] = test system: IL-6; settings: IVD cells pre-treated with IL-1β
[6] = test system: IL-6; settings: rheumatoid synovial fibroblasts
[7] = test system: IL-6
[8] = test system: NF-κB; settings: IVD cells of patients with acute spinal injury
[9] = test system: collagen type II; settings: IVD cells of patients with acute spinal injury
[10] = test system: TIMP-3; settings: high concentrations of curcumin
[11] = test system: MMP-3; settings: oral, mice; dose dependent manner
[12] = test system: IL-8; settings: monocytes and macrophages
[13] = test system: MCP-1; settings: viral induced ARDS mouse model
[14] = if injected intravenously
[15] = test system: pro-inflammatory cytokines; settings: multiple myeloma cell lines
[16] = test system: pro-inflammatory cytokines; settings: pancreatic carcinoma cell lines
[17] = test system: macrophage inflammatory protein-1α (MIP-1α); settings: monocytes and macrophages
[18] = test system: monocyte chemoattractant protein-1 (MCP-1); settings: monocytes and macrophages
[19] = test system: IL-1β; settings: monocytes and macrophages
[20] = molecular target: T1, MMP-3 (Homo sapiens, UniProt P08254); settings: IL-1β stimulated chondrocytes
T1 construct: endogenous in cells; host or cells: IL-1β stimulated chondrocytes
T1 sequence (P08254 100-477): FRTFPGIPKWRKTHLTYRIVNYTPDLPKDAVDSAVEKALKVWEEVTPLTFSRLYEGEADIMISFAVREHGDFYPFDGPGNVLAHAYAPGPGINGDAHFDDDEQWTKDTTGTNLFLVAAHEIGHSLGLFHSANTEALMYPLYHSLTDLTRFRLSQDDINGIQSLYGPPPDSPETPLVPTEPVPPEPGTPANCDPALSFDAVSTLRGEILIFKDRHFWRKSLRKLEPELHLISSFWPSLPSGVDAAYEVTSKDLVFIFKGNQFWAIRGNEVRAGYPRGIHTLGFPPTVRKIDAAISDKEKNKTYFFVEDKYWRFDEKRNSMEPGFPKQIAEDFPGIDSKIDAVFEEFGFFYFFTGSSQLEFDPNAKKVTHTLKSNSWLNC

[21] = test system: acute pancreatitis; settings: acute pancreatitis mouse model
[22] = test system: MMP-2; settings: MDA breast cancer cell line
[23] = test system: MMP-1; settings: human astroglioma cells
[24] = test system: MMP-1; settings: oral, mice; dose dependent manner
[25] = test system: NF-κB; settings: chondrocytes
[26] = test system: viral induced acute respiratory distress syndrome; settings: viral induced ARDS mouse model
[27] = test system: IL-1β
[28] = test system: IL-6; settings: rats with non-bacterial prostatitis
[29] = test system: interferon-γ; settings: splenic T lymphocytes
[30] = test system: TNF-α; settings: acute pancreatitis mouse model
[31] = test system: SOX9; settings: IVD cells of patients with acute spinal injury
[32] = test system: TNF-α; settings: rats with non-bacterial prostatitis
[33] = test system: MMP-2; settings: MDA-MB-231 cells
[34] = test system: TNF-α; settings: peritoneal macrophages
[35] = test system: pro-inflammatory cytokines; settings: colon carcinoma cell lines
[36] = test system: IL-6; settings: monocytes, high glucose environment
[37] = test system: MMP-3; settings: helicobacter pylori infected cells; dose dependent
[38] = test system: MMP-9; settings: chondrocytes
[39] = test system: MMP-9; settings: human astroglioma cells
[40] = test system: MMP-9; settings: A549 in vitro
[41] = test system: type II collagen-induced arthritis; settings: oral, mice; dose dependent manner
[42] = test system: MMP-3; settings: equine cartilage explants; dose dependent
[43] = test system: pro-inflammatory cytokines; settings: hepatocellular carcinoma cell lines
[44] = test system: IL-8; settings: viral induced ARDS mouse model
[45] = test system: TIMP-1; settings: high concentrations of curcumin
[46] = test system: interferon-γ; settings: viral induced ARDS mouse model
[47] = test system: IL-2; settings: splenic T lymphocytes
[48] = test system: IL-8; settings: human articular chondrocytes
[49] = test system: MMP-3; settings: human astroglioma cells
[50] = test system: IL-8; settings: rats with non-bacterial prostatitis
[51] = test system: MMP-9; settings: MDA breast cancer cell line
[52] = test system: MMP-3; settings: curcumin added to cell culture
[53] = test system: IL-6; settings: Wistar albino rats, experimental acute pancreatitis
[54] = test system: TNF-α; settings: monocytes and macrophages
[55] = test system: IL-8; settings: 20 μM curcumin
[56] = test system: MMP-3
[57] = test system: MMP-2; settings: A549 in vitro
[58] = molecular target: T2, MMP-9 (Homo sapiens, UniProt P14780); settings: helicobacter pylori infected cells; dose dependent
T2 construct: endogenous in cells; host or cells: human gastric epithelial cells infected with Helicobacter pylori
T2 sequence (P14780 94-707): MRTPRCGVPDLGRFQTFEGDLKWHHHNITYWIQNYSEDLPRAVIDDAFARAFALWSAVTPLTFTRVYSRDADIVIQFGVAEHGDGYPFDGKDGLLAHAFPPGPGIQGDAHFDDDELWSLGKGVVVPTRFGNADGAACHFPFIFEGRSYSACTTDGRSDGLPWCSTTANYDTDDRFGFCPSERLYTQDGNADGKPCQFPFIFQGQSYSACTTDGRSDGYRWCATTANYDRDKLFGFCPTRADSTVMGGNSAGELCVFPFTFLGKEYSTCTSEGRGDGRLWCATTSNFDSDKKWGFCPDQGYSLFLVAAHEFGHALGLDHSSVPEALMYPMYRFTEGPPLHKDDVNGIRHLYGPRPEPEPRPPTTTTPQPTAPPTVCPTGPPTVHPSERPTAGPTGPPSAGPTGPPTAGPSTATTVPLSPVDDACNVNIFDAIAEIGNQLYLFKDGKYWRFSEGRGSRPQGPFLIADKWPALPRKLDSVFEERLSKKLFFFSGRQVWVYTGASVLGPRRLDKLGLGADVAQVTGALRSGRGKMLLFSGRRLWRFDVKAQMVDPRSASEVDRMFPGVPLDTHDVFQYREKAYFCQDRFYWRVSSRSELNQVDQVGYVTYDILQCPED

[59] = test system: TIMP-2; settings: high concentrations of curcumin
[60] = test system: MCP-1; settings: monocytes, high glucose environment
[61] = test system: IL-12; settings: peritoneal macrophages
[62] = test system: TNF-α; settings: Wistar albino rats, experimental acute pancreatitis
[63] = test system: IL-8; settings: monocytes, high glucose environment
[64] = test system: TIMP-1; settings: MDA-MB-231 cells
[65] = test system: COX2; settings: chondrocytes
[66] = test system: IL-6; settings: viral induced ARDS mouse model
[67] = test system: MMP-1; settings: IL-1β pre-stimulated disc cells
[68] = test system: TIMP-4; settings: high concentrations of curcumin
[69] = test system: TNF-α; settings: monocytes, high glucose environment
[70] = test system: IL-8; settings: human esophageal epithelial cells
[71] = test system: MMP-1; settings: treated IVD samples
[72] = test system: MMP-3; settings: after treatment; decreased from 0.9 ng/mg tissue
[73] = test system: IL-8; settings: 10 μM EGCG, IL-1β stimulated
[74] = test system: MMP-3; settings: 10 μM EGCG, IL-1β stimulated
[75] = test system: COX-2; settings: 10 μM EGCG, IL-1β stimulated
[76] = test system: MMP-13; settings: 10 μM EGCG, IL-1β stimulated
[77] = test system: MMP-1; settings: 10 μM EGCG, IL-1β stimulated
[78] = test system: IL-6; settings: 10 μM EGCG, IL-1β stimulated

## Oc1ccc(C=Cc2cc(O)cc(O)c2)cc1 [Resveratrol, resveratrol]
[1]
  levels of MMP-3: reduced
[2]
  levels of IL-8: reduced
[3]
  levels of MMP-1: reduced
[4]
  levels of MMP-13: reduced
[5]
  levels of IL-6: reduced

## COc1cc(/C=C/C(=O)/C=C(O)/C=C/c2ccc(O)c(OC)c2)ccc1O [curcumin, 1,7-bis(4-hydroxy-3-methoxyphenyl)-1,6-heptadiene-3,5-dione]
[6]
  release of IL-6: block
[7]; 10 μM curcumin
  expression of IL-6 decreased: 50%
[7]; 20 μM curcumin
  expression of IL-6 decreased: 70%
[8]
  IL-1 induced NF-κB activity: blocked
[9]
  IL-1 inhibition of collagen type II expression: reversed
[10]
  TIMP-3: up-regulated
[11]
  MMP-3 expression in joints: suppress
[12]
  IL-8 release: suppresses
[13]
  expression of MCP-1: reduced
[14]
  cardiopathy: QT prolongation
[15]
  pro-inflammatory cytokines: suppressed
[16]
  pro-inflammatory cytokines: suppressed
[17]
  MIP-1α release: suppresses
[18]
  MCP-1 release: suppresses
[19]
  IL-1β release: suppresses
[20]
  MMP-3 activity: inhibited
[21]
  pancreatic injury: decreased
[22]
  MMP-2: inhibited
[23]
  MMP-1: Suppression
[24]
  MMP-1 expression in joints: suppress
[25]
  IL-1 induced NF-κB activation: decrease
[26]
  fibrosis: reduction
  inflammation: marked decrease
[27]; 10 μM curcumin
  Expression of IL-1β reduced: 70%
[27]; 20 μM curcumin
  Expression of IL-1β reduced: 75%
[28]
  IL-6 expression: reduced
[29]
  production of interferon-γ: inhibited
[30]
  TNF-α levels: suppression
[31]
  IL-1 inhibition of SOX9 expression: reversed
[32]
  TNF-α expression: reduced
[33]
  MMP-2: down-regulated
[34]
  production of TNF-α: inhibited
[35]
  pro-inflammatory cytokines: suppressed
[36]
  release of IL-6: markedly reduced
[37]
  MMP-3 activity: suppressed
[38]
  MMP-9 regulation: down regulation
[39]
  MMP-9: Suppression
[40]
  MMP-9: Inhibition
[41]
  type II collagen-induced arthritis: suppress
[42]
  IL-1β stimulated MMP-3 release: reduced
[43]
  pro-inflammatory cytokines: suppressed
[44]
  expression of IL-8: reduced
[45]
  TIMP-1: up-regulated
[46]
  expression of interferon-γ: reduced
[47]
  expression of IL-2: inhibited
[48]
  release of IL-8: block
[49]
  MMP-3: Suppression
[50]
  IL-8 expression: reduced
[51]
  MMP-9: inhibited
[52]
  MMP-3: dose dependent suppression
[53]
  IL-6 levels: reduced
[54]
  TNF-α release: suppresses
[55]
  IL-8 expression reduced: 50%
[56]; 10 μM curcumin
  MMP-3 expression reduced: 70%
[56]; 20 μM curcumin
  MMP-3 expression reduced: 75%
[57]
  MMP-2: Inhibition
[58]
  MMP-9 activity: suppressed
[59]
  TIMP-2: up-regulated
[60]
  release of MCP-1: markedly reduced
[61]
  expression of IL-12: inhibited
[62]
  TNF-α levels: reduced
[63]
  release of IL-8: markedly reduced
[64]
  TIMP-1: up-regulated
[65]
  COX2 regulation: down regulation
[66]
  expression of IL-6: reduced
[67]; 5 μM curcumin
  reduction in MMP-1 expression: 22%
[67]; 10 μM curcumin
  reduction in MMP-1 expression: 60%
[67]; 20 μM curcumin
  reduction in MMP-1 expression: 78%
[68]
  TIMP-4: up-regulated
[69]
  release of TNF-α: markedly reduced
[70]
  release of IL-8: block

## IL-1Ra: recombinant interleukin-1 receptor antagonist
[71]
  effect on MMP-1 concentration: no effect
[72]
  concentration of total MMP-3 activity: 0.35 ng/mg tissue

## epigallocatechin 3-gallate [EGCG]
[73]
  expression of IL-8: inhibited
[74]
  expression of MMP-3: inhibited
[75]
  expression of COX-2: inhibited
[76]
  expression of MMP-13: inhibited
[77]
  expression of MMP-1: inhibited
[78]
  expression of IL-6: inhibited
